Patent US10426751B2, “Allosteric activators for treatment of phenylketonuria” (MCMASTER UNIVERSITY, priority 2015, dated 2019)

Assays:
WT-PAH = target: T1, WT-PAH (Homo sapiens, UniProt P00439); assay: Primary screen (READ): ligand-induced stabilization of PAH activity in 8 M urea, Tyr formation by CE-UV; type: biochemical; conditions: 8 M urea, ligand 20 μM; ligand-free enzyme (7±0.5) %
T1 construct: made in house; the paragraph itself says 'eukaryotic cell cultures' (pMAL vector, Martinez laboratory, University of Bergen)
T1 sequence (P00439 1-452): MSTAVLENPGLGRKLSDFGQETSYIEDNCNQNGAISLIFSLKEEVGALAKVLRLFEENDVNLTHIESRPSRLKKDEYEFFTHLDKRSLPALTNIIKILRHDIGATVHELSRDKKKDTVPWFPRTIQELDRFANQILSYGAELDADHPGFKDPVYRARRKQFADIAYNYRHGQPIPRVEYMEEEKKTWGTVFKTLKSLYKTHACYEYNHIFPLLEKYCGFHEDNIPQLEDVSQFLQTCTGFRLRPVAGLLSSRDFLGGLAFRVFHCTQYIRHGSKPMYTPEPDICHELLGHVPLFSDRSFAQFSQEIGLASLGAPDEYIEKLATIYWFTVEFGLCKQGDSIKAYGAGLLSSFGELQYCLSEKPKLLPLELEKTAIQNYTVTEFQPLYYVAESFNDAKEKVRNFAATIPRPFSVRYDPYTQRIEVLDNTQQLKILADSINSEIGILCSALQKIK
Method: Tetrameric human phenylalanine hydroxylase (PAH) enzyme kinetic assays were performed off-line under standardized conditions prior to quantification of Tyr formation by CE with UV detection. Enzyme assays were performed by first mixing together Phe (1 mM), catalase (100 nM) and PAH (0.25 μM/subunit) in a reaction buffer (20 mM HEPES and 200 mM NaCl, pH 7.0) that were equilibrated at 25° C. for 4 min. Then, ferrous (Fe^2+) ammonium sulfate (100 μM) was added to the solution for 1 min and the reaction was subsequently initiated by addition of BH4 ([…]) with DTT (5 mM) using a total volume of 100 μL. The reaction mixture was then vortexed for 60 s followed by sonication for 2 min prior to centrifugation for 10 s at 4 g and storage in a refrigerator (+4° C.). An aliquot (20 μL) was withdrawn from the quenched enzyme reaction and placed in a micro vial containing Me-Tyr as IS (100 μM) prior to CE analysis. The stability of the quenched enzyme reaction was confirmed by intermittent analysis of PAH activity over 6 h at room temperature, and no significant changes in the Tyr/IS or Phe/Tyr response ratio were measured. Enzymatic reactions were performed for both WT-PAH and two PAH mutants by pre-equilibrating each ligand for 10 min prior to addition of ferrous ion and BH4/DDT as described in enzyme reaction protocol in order to assess for ligand-induced PAH inhibition or activation.
Unlike thermal stability assays that can induce protein aggregation, chemical denaturants are more suitable as perturbants to promote unfolding and enzyme inactivation while solubilizing multimeric proteins. In this context, restoration of enzyme activity upon denaturation (READ) was first introduced to characterize PCs that stabilize yet enhance the activity of a lysosomal enzyme, β-glucocerebrosidase (GCase). Herein, READ was modified, further optimized and validated for primary screening of PCs for the cytosolic enzyme (PAH) using a chemical library containing structurally unique compounds with drug-like activity. For instance, the primary screen was used to measure ligand-induced stabilization of PAH by extrinsic small molecules that impart greater resistance to urea unfolding as compared to ligand-free apo-enzyme conditions. PAH activity was first examined as a function of urea concentration (0 to 8 M) and pre-equilibration time (10 min to 2 hr) in order to determine optimum conditions where residual enzyme activity was largely attenuated below 10% due to protein unfolding. Protein unfolding was performed in triplicate offline with the enzyme reaction buffer (20 mM HEPES and 200 mM NaCl, pH 7.0) using tetrameric human PAH (1 μM and/or 0.1 μM) or mutant PAH (1 μM and/or 0.1 μM) incubated 10 min in 0 M or 8 M urea in the presence or absence of ligand (20 μM). Dose-response studies (0, 2.0 and 20 μM) were subsequently performed in triplicate on screen-positive compounds using re-synthesized ligands in order to further validate initial screen results. In all cases, quenched enzyme reactions were processed as described previously prior to CE analysis. PAH activity measurements based on Tyr formation at 8M urea with the presence or absence of PC were normalized to 0 M urea for each aliquot enzyme reaction to minimize long-term variation, which also enables direct comparison of the ligand-induced stabilization activity under denaturing conditions (8M urea) while confirming inhibition and activation effects for ligands under native conditions (0 M urea).

PAH = target: T2, PAH (Homo sapiens, UniProt P00439); conditions: 100 μM; cited from earlier work
T2 sequence (P00439 1-452): T1 sequence (P00439 1-452)

Structure (SMILES)	PAH residual activity (% of WT-PAH) (WT-PAH)	shift of denaturation temperature relative to ligand-free enzyme (PAH)
Nc1c(-c2ccc3ccccc3n2)c2ccc([N+](=O)[O-])cc2c(=O)n1Cc1ccccc1 [compound III, 3-amino-2-benzyl-7-nitro-4-(2-quinolyl)-1,2-dihydroisoquinolin-1-one]	19%	greater than 14 °C
Cc1ccnc(-n2c(=S)[nH]c3sc(C)c(C)c3c2=O)c1 [compound IV, 5,6-dimethyl-3-(4-methyl-2-pyridinyl)-2-thioxo-2,3-dihydrothieno[2,3-d] pyrimidin-4(1H)-one]	9%	> 7 °C
